From patent US20120225862A1, “HETEROARYL BENZAMIDES, COMPOSITIONS AND METHODS OF USE” (AUCKLAND UNIVSERVICES LIMITED, priority 2009, published 2012)

Assays:
[1] = target: T1, mTOR (Homo sapiens, UniProt P42345); experiment: In vitro kinase activity (Millipore KinaseProfiler): mTOR; format: biochemical; conditions: no head or unit printed
T1 construct: purchased Millipore (KinaseProfiler service)
Experimental: (§1) All cells were grown in DMEM+10% FCS. ACHN and ACHN shVHL were a kind gift from George V. Thomas (UCLA). HIF overexpressing clones were described previously. Transfection of RNA oligos were performed with DnarmaFECT Reagent 1 (Dharmcon), according to manufacturer's directions. ON-TARGETplus SMART pools against HIF-1β/ARNT were purchased from Dharmacon. Glut1 was detected with anti-GLUT1 antibody from NeoMarkers/LabVision/Fisher. Pyruvate/lactate levels and hexokinase activity were both measured by fluorometric assay (BioVision and Sigma-Aldrich, respectively). ATP levels were measured by bioluminescence assay (ATP Determination Kit from Molecular Probes/Invitrogen). In vitro kinase activities were performed by Millipore KinaseProfiler. Affi-Gel 10 (BioRad) activated affinity media was coupled to analogs to generate immobilized affinity linkers.
(§2) We next wanted to investigate the differential glucose uptake between RCCs with and without VHL treated with compound 47 that subsequently lead to the selective death of VHL-deficient cells. We first examined the message levels of the two main glucose transporters, GLUT1 and GLUT2 by quantitative real-time PCR. GLUT1 is an inducible, high-affinity glucose transporter, while GLUT2 is the glucose transporter responsible for basal glucose uptake. […] Cells deficient in VHL had very low levels of GLUT2 that could barely be detected (FIG. 3J). […]

[2] = system: RCC4/VHL; experiment: XTT IC50 assay, selectivity RCC4 versus RCC4 with VHL-reintroduced; format: cell-based, human; conditions: selectivity ratio of XTT IC50 values, RCC4 vs RCC4/VHL
In short: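 RCC4 parental and VHL-reintroduced RCC4/VHL cells (DMEM, 10% FCS) treated with serially diluted drug for four days. Viability by XTT (0.3 mg/mL) with N-methyl dibenzopyrazine methyl sulfate, 1–2 h at 37 °C, absorbance 450 nm; IC50 by linear interpolation.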

[3] = target: T2, MEK1 (Homo sapiens, UniProt Q02750); experiment: In vitro kinase activity (Millipore KinaseProfiler): MEK1; format: biochemical; conditions: no head or unit printed
T2 construct: purchased Millipore (KinaseProfiler service)
Experimental: as §1, §2

[4] = target: T3, CDK1/cyclinB (Homo sapiens, UniProt P06493); experiment: In vitro kinase activity (Millipore KinaseProfiler): CDK1/cyclinB; format: biochemical; conditions: no head or unit printed
T3 construct: purchased Millipore (KinaseProfiler service)
Experimental: as §1, §2

[5] = system: RCC4/VHL cell clones overexpressing HIF-2α; experiment: Sensitivity of RCC4/VHL clones overexpressing HIF; format: cell-based, human; conditions: two HIF-overexpressing RCC4/VHL clones, FIG. 2G
Experimental: As the hypoxia-inducible factor family of transcription factors are the best-characterized VHL targets, we next examined whether toxicity was HIF-dependent. A non-degradable, constitutively active HIF was overexpressed in RCC4/VHL cells. Two individual HIF-overexpressing clones were tested for their sensitivity to compound 47. […] Furthermore, the sensitivity of RCCs that lack functional VHL to compound 47 is directly linked to the aberrant upregulation of HIF.

[6] = target: T4, FGFR1 (Homo sapiens, UniProt P11362); experiment: In vitro kinase activity (Millipore KinaseProfiler): FGFR1; format: biochemical; conditions: no head or unit printed
T4 construct: purchased Millipore (KinaseProfiler service)
Experimental: as §1, §2

[7] = target: T5, ROCK-I (Homo sapiens, UniProt Q13464); experiment: In vitro kinase activity (Millipore KinaseProfiler): ROCK-I; format: biochemical; conditions: no head or unit printed
T5 construct: purchased Millipore (KinaseProfiler service)
Experimental: as §1, §2

[8] = target: T6, cSRC (Homo sapiens, UniProt P12931); experiment: In vitro kinase activity (Millipore KinaseProfiler): cSRC; format: biochemical; conditions: no head or unit printed
T6 construct: purchased Millipore (KinaseProfiler service)
Experimental: as §1, §2

[9] = system: RCC4/VHL; experiment: Necrotic cell death by trypan blue, RCC4/VHL; format: cell-based, human; conditions: 3 days, 5 μM, FIG. 2F
Experimental: For 2,3-bis[2-methoxy-4-nitro-5-sulfophenyl]-2H-tetrazolium-5-carboxanilide (XTT) assays, five thousand cells were plated in 96-well plates. The next day, vehicle (DMSO) or drug was added by serial dilution. Four days later, media were aspirated, XTT solution (0.3 mg/ml of XTT (Sigma), 2.65 mg/ml N-methyl dibenxopyrazine methyl sulfate (Simga) in phenol red-free media) was added, and the plates were incubated at 37° C. for 1-2 hours. Metabolism of XTT was quantified by measuring the absorbance at 450 nm. IC50s were calculated using linear interpolation. For clonogenic survival assays, three hundred cells were plated per 60 mm tissue culture dish. The cells were allowed to attach overnight and then treated with vehicle or drug for 14 days. Colonies were fixed and stained with crystal violet (0.1% crystal violet in 95% ethanol). All conditions were measured in triplicate and each experiment was done in duplicate or triplicate. To determine necrosis, cells were treated with drug for a given time point. Media and cells were collected, centrifugated, and resuspended in 0.4% trypan blue (Invitrogen). Live and dead cells were counted on a hematocytometer.

[10] = system: 50 different kinases; experiment: In vitro kinase panel (Millipore KinaseProfiler), summary; format: biochemical
Experimental: as §1, §2

[11] = system: AMPK; experiment: In vitro kinase activity (Millipore KinaseProfiler): AMPK; format: biochemical; conditions: no head or unit printed
Experimental: as §1, §2

[12] = target: T7, IKKα (Homo sapiens, UniProt O15111); experiment: In vitro kinase activity (Millipore KinaseProfiler): IKKα; format: biochemical; conditions: no head or unit printed
T7 construct: purchased Millipore (KinaseProfiler service)
Experimental: as §1, §2

T7 sequence (O15111 whole entry, species assumed): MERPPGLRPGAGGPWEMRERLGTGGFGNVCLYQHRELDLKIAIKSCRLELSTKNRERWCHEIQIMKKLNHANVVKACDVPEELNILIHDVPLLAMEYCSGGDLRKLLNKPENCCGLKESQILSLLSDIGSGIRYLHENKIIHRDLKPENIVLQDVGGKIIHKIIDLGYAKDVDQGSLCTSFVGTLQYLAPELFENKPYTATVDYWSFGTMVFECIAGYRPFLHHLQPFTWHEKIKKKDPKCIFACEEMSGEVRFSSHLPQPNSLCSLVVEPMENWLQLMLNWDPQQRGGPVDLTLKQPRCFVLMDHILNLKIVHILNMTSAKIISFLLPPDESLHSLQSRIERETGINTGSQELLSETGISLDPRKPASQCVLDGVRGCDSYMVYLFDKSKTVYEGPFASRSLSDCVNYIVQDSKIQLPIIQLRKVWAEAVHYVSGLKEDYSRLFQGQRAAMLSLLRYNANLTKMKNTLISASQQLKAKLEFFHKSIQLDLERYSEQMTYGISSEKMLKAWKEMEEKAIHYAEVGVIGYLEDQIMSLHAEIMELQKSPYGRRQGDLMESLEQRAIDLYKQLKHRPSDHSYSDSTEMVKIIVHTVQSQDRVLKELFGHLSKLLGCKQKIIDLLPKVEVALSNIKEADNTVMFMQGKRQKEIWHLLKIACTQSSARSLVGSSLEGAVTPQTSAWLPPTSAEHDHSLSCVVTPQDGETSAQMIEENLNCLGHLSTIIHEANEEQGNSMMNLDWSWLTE
T3 sequence (P06493 whole entry, species assumed): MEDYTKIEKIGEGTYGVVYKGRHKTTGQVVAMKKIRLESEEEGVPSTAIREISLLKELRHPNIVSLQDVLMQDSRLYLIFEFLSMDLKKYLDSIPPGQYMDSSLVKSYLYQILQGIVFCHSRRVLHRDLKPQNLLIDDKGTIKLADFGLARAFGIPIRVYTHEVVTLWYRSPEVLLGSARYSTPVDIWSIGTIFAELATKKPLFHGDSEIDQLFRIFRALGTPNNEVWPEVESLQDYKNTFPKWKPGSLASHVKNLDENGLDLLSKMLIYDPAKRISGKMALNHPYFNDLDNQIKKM
T3 sequence (P14635 whole entry partner, species assumed): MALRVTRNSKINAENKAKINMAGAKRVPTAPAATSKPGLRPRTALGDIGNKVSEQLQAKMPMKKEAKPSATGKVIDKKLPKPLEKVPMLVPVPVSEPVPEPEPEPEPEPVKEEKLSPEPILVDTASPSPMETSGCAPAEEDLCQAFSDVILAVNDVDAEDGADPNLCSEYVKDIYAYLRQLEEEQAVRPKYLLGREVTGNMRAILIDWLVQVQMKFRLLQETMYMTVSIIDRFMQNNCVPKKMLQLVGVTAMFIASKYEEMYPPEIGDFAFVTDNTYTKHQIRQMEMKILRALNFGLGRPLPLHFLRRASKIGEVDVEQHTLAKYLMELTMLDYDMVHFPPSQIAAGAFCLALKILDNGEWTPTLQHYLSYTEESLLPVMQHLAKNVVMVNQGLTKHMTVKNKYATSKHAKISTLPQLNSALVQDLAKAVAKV
T4 sequence (P11362 22-822, species assumed): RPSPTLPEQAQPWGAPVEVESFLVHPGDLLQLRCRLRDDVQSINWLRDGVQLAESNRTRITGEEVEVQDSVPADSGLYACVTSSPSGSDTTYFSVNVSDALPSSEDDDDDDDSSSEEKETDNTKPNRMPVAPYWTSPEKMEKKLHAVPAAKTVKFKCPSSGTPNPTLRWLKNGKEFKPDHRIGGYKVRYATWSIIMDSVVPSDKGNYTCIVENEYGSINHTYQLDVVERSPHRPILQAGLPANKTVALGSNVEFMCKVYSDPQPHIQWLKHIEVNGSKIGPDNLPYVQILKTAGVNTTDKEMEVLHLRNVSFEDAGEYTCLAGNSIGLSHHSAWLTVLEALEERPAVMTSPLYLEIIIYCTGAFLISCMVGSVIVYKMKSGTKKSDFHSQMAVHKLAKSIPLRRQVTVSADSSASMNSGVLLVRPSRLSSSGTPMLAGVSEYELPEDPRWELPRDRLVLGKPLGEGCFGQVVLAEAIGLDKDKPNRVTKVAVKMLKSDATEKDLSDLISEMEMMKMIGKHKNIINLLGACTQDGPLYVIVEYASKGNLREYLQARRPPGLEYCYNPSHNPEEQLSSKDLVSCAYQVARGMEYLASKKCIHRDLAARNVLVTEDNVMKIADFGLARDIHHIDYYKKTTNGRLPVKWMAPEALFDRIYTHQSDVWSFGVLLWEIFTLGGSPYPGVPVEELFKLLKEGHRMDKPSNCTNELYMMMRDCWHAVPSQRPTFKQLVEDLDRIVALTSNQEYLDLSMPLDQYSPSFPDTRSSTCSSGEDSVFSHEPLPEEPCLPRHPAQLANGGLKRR
T6 sequence (P12931 whole entry, species assumed): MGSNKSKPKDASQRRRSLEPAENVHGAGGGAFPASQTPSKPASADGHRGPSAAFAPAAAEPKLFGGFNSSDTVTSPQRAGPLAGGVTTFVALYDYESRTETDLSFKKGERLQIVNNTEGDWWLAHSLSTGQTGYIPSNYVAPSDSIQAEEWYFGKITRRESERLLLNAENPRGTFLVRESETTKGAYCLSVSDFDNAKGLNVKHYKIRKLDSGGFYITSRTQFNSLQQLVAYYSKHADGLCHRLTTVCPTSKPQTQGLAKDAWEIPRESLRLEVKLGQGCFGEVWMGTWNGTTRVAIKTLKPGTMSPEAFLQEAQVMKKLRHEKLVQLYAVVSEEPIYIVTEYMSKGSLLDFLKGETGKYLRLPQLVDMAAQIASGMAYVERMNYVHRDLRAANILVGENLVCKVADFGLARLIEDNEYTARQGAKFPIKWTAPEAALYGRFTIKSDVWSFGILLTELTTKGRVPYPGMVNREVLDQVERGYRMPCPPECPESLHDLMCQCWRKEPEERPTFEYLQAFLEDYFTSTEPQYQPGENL
T2 sequence (Q02750 whole entry, species assumed): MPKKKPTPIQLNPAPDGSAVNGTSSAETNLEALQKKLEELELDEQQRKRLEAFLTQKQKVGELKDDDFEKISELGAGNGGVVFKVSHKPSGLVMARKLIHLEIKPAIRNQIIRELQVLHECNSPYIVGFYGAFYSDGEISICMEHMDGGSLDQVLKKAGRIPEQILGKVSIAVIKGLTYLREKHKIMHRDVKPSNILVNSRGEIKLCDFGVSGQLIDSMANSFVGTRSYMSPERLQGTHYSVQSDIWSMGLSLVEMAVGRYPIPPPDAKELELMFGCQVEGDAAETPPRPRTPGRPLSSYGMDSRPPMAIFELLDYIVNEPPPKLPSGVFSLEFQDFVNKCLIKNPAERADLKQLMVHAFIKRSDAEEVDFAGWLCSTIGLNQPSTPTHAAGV
T5 sequence (Q13464 whole entry, species assumed): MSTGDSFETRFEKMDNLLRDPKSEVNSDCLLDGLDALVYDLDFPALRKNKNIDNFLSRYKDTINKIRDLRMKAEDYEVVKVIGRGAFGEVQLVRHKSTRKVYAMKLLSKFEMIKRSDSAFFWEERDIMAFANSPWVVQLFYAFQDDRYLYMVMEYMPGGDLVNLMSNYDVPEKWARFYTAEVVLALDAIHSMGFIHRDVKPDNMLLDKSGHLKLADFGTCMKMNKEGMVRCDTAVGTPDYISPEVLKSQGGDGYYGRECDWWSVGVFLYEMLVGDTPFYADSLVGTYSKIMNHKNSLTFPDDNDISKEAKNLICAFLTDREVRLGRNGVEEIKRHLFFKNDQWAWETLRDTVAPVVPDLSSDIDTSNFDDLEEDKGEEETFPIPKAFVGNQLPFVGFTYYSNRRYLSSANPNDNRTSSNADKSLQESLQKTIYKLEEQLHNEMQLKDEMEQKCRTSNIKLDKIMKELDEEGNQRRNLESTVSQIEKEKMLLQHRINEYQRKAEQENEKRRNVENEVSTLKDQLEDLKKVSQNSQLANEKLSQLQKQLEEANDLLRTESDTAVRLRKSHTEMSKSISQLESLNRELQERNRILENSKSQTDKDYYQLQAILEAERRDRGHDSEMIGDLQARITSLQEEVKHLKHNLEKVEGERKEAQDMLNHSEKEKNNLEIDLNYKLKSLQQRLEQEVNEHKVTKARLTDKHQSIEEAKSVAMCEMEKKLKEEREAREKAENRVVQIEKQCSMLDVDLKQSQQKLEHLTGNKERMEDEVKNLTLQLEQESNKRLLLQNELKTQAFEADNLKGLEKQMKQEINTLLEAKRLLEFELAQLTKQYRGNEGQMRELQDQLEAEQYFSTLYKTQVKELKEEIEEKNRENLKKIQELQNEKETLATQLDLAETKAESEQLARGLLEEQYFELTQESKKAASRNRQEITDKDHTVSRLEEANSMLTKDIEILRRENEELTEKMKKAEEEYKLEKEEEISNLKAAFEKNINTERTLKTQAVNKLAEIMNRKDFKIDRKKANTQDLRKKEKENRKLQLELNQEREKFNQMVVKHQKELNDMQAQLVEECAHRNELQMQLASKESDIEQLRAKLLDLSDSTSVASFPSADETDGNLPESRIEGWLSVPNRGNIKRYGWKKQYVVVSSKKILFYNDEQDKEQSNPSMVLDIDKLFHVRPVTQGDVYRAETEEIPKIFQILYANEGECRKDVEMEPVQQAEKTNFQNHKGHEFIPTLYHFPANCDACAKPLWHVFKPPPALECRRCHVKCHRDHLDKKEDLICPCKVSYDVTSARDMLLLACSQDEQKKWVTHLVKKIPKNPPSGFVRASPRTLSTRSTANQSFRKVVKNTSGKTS

**Q.** For `CC(C)(C)c1ccc(S(=O)(=O)NCc2ccc(C(=O)Nc3cccnc3)cc2)cc1` [Example 38, 4-((4-tert-Butylphenylsulfonamido)methyl)-N-(pyridin-3-yl)benzamide], which mTOR kinase activity [1] is on record?
**A.** 101

**Q.** What about the “Ratio (RCC4:RCC/VHL)” value [2] of the same molecule?
**A.** c (“c” reflects a ratio of >100)

**Q.** And the MEK1 kinase activity [3]?
**A.** 99

**Q.** What about the CDK1/cyclinB kinase activity [4] of the same molecule?
**A.** 96

**Q.** What about the “effect of ectopic HIF expression in wild-type VHL cells on sensitivity” value [5] of the same molecule?
**A.** sensitized these cells

**Q.** What about the FGFR1 kinase activity [6] of the same molecule?
**A.** 107%

**Q.** What about the ROCK-I kinase activity [7] of the same molecule?
**A.** 74%

**Q.** And the cSRC kinase activity [8]?
**A.** 104%

**Q.** What about the “necrotic cell death in RCC4/VHL” value [9] of the same molecule?
**A.** relatively insensitive

**Q.** And the “decrease in activity of 50 different kinases” value [10]?
**A.** no significant decrease

**Q.** And the AMPK kinase activity [11]?
**A.** 92%

**Q.** What about the IKKα kinase activity [12] of the same molecule?
**A.** 102
